Source: patent publication US4500731A, “Derivatives of 4-phenyl-4-oxobuten-2-oic acid, pharmaceutical compositions containing them, and therapeutic uses for them” (Roussel Uclaf, priority 1981, dated 1985)

Assays:
[1] = acute toxicity (LD50); conditions: mouse, in vivo, po; orally in mice
Experimental: (3) Determination of acute toxicity
The LD50 was evaluated after administration of the products orally in mice.

[2] = tested on: gastric secretions; assay: anti-gastric secretion activity (Shay, pylorus-ligated rats), total acidity of gastric juice; assay type: in vivo, rat (male); conditions: 10 mg/kg, intraduodenally, 3 hours
Experimental: (1) Determination of the anti-gastric secretion activity
The technique used is described by H. SHAY et al. in Gastroenterology, 5, 43, (1945).
Male rats were used weighing about 200 g (10 animals per lot) which had been without food for 48 hours but were allowed an 8% glucose solution ad libitum. After the rats were slightly anesthetized with ether, the pylorus of each was ligated. After the end of the operation, the compound to be tested was administered intraduodenally in different doses, or in the case of the control animals, a 0.5% solution of carboxymethylcellulose was administered intraduodenally, after which the abdominal incision was sutured.
Three hours later, the animals were sacrificed and their stomachs removed, after ligating the esophagus. The gastric juice was removed and centrifuged. The volume of gastric juice was then determined and the total acidity was established by titrating a 100 μl sample of gastric juice to a pH of 7 by means of 1/10 N aqueous sodium hydroxide solution.
The percentages of variation in total acidity between gastric secretions of the test and control animals were calculated, with the results appearing below.

[3] = tested on: stress ulcers in the stomachs of rats; assay: anti-ulcer activity, stress ulcer (stress and cold); assay type: in vivo, rat (female); conditions: 10 mg/kg, by esophageal tube
Experimental: (2) Determination of anti-ulcer activity
The technique consists in inducing ulcers in the stomachs of rats by stress (stress and cold). The technique used is described by E. C. SENAY and R. J. LEVINE, Proc. Soc. Exp. Biol., 124, 1221 (1967).
Female rats of 150 g were used (5 animals per lot) which have fasted for 48 hours with water ad libitum and glucose solution for 8 hours. The animals were given the compound being tested, or 0.5% solution of carboxymethylcellulose for the control animals, by esophageal tube. Two hours later the animals were bundled in a jacket of netting. Their paws were tied and the entire unit was placed in a refrigerator at 8° C. for two hours. The rats were released and killed with ether.
Their stomachs were opened along the greater curvature and examined with a binocular magnifier. The seriousness of the lesions was rated from 0 to 3 for each stomach.
For each lot of the rats, the average intensity of the ulcerations was determined. The degree of ulceration for the test animals was determined and compared with the control animals for each lot.

Question: For `COc1cc(C(=O)/C=C/C(=O)O)ccc1O` [Example 1, (E) 4-(3-methoxy-4-hydroxyphenyl)-4-oxobuten-2-oic acid], which LD50 [1] is on record?
Answer: Its LD50 is 1000 mg/kg.

Question: What about the “Anti-secretion activity: Acid conc. (% variation as compared with the controls)” value [2] of the same molecule?
Answer: The value was -90%.

Question: What about the “Anti-ulcer activity: Ulceration (% variation as compared with the controls)” value [3] of the same molecule?
Answer: Its value is -89%.

Question: Which LD50 [1] does the source give for `O=C(O)/C=C/C(=O)c1ccc2c(c1)OCCO2` [Example 2, (E) 4-(2,3-dihydrobenzodioxine-6-yl)-4-oxobuten-2-oic acid] here?
Answer: The LD50 was 750 mg/kg.

Question: What about the “Anti-secretion activity: Acid conc. (% variation as compared with the controls)” value [2] of the same molecule?
Answer: Its value is -41%.

Question: What about the “Anti-ulcer activity: Ulceration (% variation as compared with the controls)” value [3] of the same molecule?
Answer: The value was -33%.
